Measured values reported in patent US5266589A, “Method of increasing the muscle/fat ratio in agricultural domestic animals” (Duphar International Research B.V., priority 1990, dated 1993).
“Also recorded” adds a separate entry of the source. Where two headings read alike, the source gives them in different places.

What was measured:
swine adipose tissue = settings: Mersmann, cited from earlier work; for lipolytic activity, in words: pigs
right atrium = assay: Heart activity: chronotropic effect on isolated right atria, in relation to Isoprenaline; assay type: cell-based, male Wistar rats; settings: for Emax: read-out: Chronotropic effect on the right atrium: i.a. (intrinsic activity); for EC50: read-out: Chronotropic effect on the right atrium: pEC50 (converted)
Method: The heart activity has been determined in heart tissue of rats. It is known that rats are just as suitable for the determination of the heart activity (chronotropy) as the agricultural domestic animals mentioned hereinbefore.
The substances are tested with respect to their chronotropic effect on isolated right atria under a pre-load with 0.5 g, in an organ bath which contains the above Krebs buffer solution and is kept at 37° C. Dose-response curves with Isoprenaline® are determined. The results are again expressed as pEC50 values and, in relation to Isoprenaline®, as intrinsic activities ("i.a.").

ovine adipocytes = assay: Lipolytic activity on isolated ovine adipocytes (FFA production), in relation to Isoprenaline; assay type: cell-based, sheep
Text: It is known, for example, from a contribution by R. G. Vernon in "New perspectives in Adipose Tissue; structure, function and development", page 76, edited by Cryer and Van, Butterworths 1984, London, that there exists a good relationship between the lipolytic activity on the one hand and the activity as a repartitioning agent on the other hand. This means that a high value for the lipolytic activity is predictable for the increase of the muscle/fat ratio and for improving the growth and the feed efficiency of agricultural domestic animals. The influence of the tested compounds on the lipolysis of adipocytes is described in example I hereinafter. Bovine and ovine adipocytes, i.e. adipocytes of representative examples of agricultural domestic animals, have been used in this example.
Pieces of adipose tissue of approximately 600×600 μm, isolated from bovine animals or sheep, are provided in a teflon container containing: 3 ml of Krebs-Henseleit buffer having a pH of 7.4, 1% w/v of demineralized bovine serum albumin (BSA), 0.33 mg/ml of collagenase and 200 nM of adenosine. The adipocytes are isolated by shaking the container at 37° C. under carbogen gassing (approximately 5% CO2 in 95% O2). After 1 hour the suspension is filtered through nylon gauze (100 μm) and washed 2 times with Krebs-Henseleit buffer at room temperature. The incubations are carried out in duplicate, each incubation mixture consisting of 50 μl of the filtered cell suspension, 100 μl of the compound to be tested, 2% w/v of BSA and 50 μg/ml of Na2 S2 O5 (antioxidant) in 2.85 ml of Krebs-Henseleit buffer. Incubation: 90 minutes at 37° C. while shaking and gassing with carbogen. […] In the organic layer the produced free fatty acids (FFA) are determined. […] The yellow color is measured in a colorimeter and is a measure of the FFA-production. […] In addition to the fond pEC50 values, the values for the intrinsic activity ("i.a.") have been recorded in Table A hereinafter. The intrinsic activity is the maximally achievable activity, also measured again with respect to Isoprenaline®.

bovine adipocytes = assay: Lipolytic activity on isolated bovine adipocytes (FFA production), in relation to Isoprenaline; assay type: cell-based; settings: for EC50 / Emax: Bos taurus, Adipocyte; for EC50: 1.5 h, read-out: Lipolytic activity: pEC50 (converted); for Emax: read-out: Lipolytic activity: i.a. (intrinsic activity)
Method: Pieces of adipose tissue of approximately 600×600 μm, isolated from bovine animals or sheep, are provided in a teflon container containing: 3 ml of Krebs-Henseleit buffer having a pH of 7.4, 1% w/v of demineralized bovine serum albumin (BSA), 0.33 mg/ml of collagenase and 200 nM of adenosine. […] After 1 hour the suspension is filtered through nylon gauze (100 μm) and washed 2 times with Krebs-Henseleit buffer at room temperature. The incubations are carried out in duplicate, each incubation mixture consisting of 50 μl of the filtered cell suspension, 100 μl of the compound to be tested, 2% w/v of BSA and 50 μg/ml of Na2 S2 O5 (antioxidant) in 2.85 ml of Krebs-Henseleit buffer. Incubation: 90 minutes at 37° C. while shaking and gassing with carbogen. After the incubation, extraction is carried out with 3 ml of 2-propanol/n-hexane/1N-H2 SO4 (40:20:1) mixture. In the organic layer the produced free fatty acids (FFA) are determined. This determination is carried out as follows: 150 μl of sample are diluted with 1 ml of chloroform and then mixed with copper reagent (10% Cu(NO3)2 /2M triethanolamine/2N acetic acid=10:9:1); 0.2% w/v of sodium diethyldithiocarbamate is added. The yellow color is measured in a colorimeter and is a measure of the FFA-production. […] The intrinsic activity is the maximally achievable activity, also measured again with respect to Isoprenaline®.

heart = settings: in the dosages required for the intended purpose; cited from earlier work
heart rate = settings: pig, in vivo; cited from earlier work
[1] = compared with tested known substances / in the concentration required for the intended use

CC(C)(Cc1ccc(O)cc1)NCC(O)c1cc(O)cc(O)c1 (stereo not shown) [(1), 1-(3,5-dihydroxyphenyl)-2-[1,1-dimethyl-2-(4-hydroxyphenyl)ethylamino]ethanol]
lipolytic activity, in words (swine adipose tissue): low lipolytic activity
relative ED50 (lipolysis) (swine adipose tissue; swine adipose tissue, relative to Fenoterol): approximately ten times as high as that of Fenoterol®
Emax (right atrium; Rattus norvegicus): 40%
EC50 (right atrium; Rattus norvegicus): 2510 nM
heart activity, in words (right atrium; [1]): considerably lower than that of the substances Ractopamine®, Fenoterol® and Clenbuterol®; also recorded: without a burdensome heart activity being experienced
heart activity, in words (right atrium; compared with tested known substances / in the concentration required for the intended use, listed as 1-(3,5-dihydroxyphenyl)-2-[1,1-dimethyl-2-(4-hydroxyphenyl)-ethylamino]ethanol): low heart effect
lipolytic activity on ovine adipocytes, in words (ovine adipocytes): remarkably high lipolytic activity
EC50 (ovine adipocytes; Ovis aries, Adipocyte, 1.5 h, 90 minutes at 37° C., pEC50 = negative logarithm of concentration at 50% of maximum effect): 501 nM
Emax (ovine adipocytes; Ovis aries, Adipocyte, maximally achievable activity with respect to Isoprenaline, read-out: Lipolytic activity: i.a. (intrinsic activity)): 140%
EC50 (bovine adipocytes): 3160 nM
Emax (bovine adipocytes): 80%
lipolytic activity on bovine adipocytes, in words (bovine adipocytes; bovine adipocytes): remarkably high lipolytic activity
intrinsic lipolytic activity, comparison in words (bovine adipocytes; versus Ractopamine and Clenbuterol): significantly higher than that of the phenylalkylamino derivatives Ractopamine® and Clenbuterol®

CC(C)(C)NCC(O)c1cc(Cl)c(N)c(Cl)c1 (stereo not shown) [Clenbuterol]
Emax (right atrium; Rattus norvegicus): 40%
EC50 (right atrium; Rattus norvegicus): 50.1 nM
side effects on the heart, in words (heart): serious side effects because in the dosages required for the intended purpose an undesired influence on the heart is exerted
EC50 (bovine adipocytes): 1580 nM
Emax (bovine adipocytes): 30%

CC(Cc1ccc(O)cc1)NCC(O)c1cc(O)cc(O)c1 (stereo not shown) [Fenoterol]
Emax (right atrium; Rattus norvegicus): 100%
EC50 (right atrium; Rattus norvegicus): 251 nM
heart activity, in words (right atrium; [1]): considerable heart activity in the concentration required for the intended purpose
EC50 (bovine adipocytes): 794 nM
Emax (bovine adipocytes): 80%

CC(CCc1ccc(O)cc1)NCC(O)c1ccc(O)cc1 (stereo not shown) [Ractopamine]
heart activity, in words (right atrium): considerable heart activity in the required concentration
Emax (right atrium; isolated rat right atria, in relation to Isoprenaline): 100%
EC50 (right atrium; isolated rat right atria, pre-load 0.5 g, Krebs buffer, 37° C.): 31.6 nM
side effects on the heart, in words (heart): serious side effects because in the dosages required for the intended purpose an undesired influence on the heart is exerted
EC50 (bovine adipocytes; bovine adipocytes, 90 minutes at 37° C., pEC50 = negative logarithm of concentration at 50% of maximum effect): 2510 nM
Emax (bovine adipocytes; bovine adipocytes, maximally achievable activity with respect to Isoprenaline): 60%

CC(C)(C)NCC(O)c1cc(O)cc(O)c1 (stereo not shown) [terbutaline]
lipolytic activity, in words (swine adipose tissue): less active in lipolysis
increasing heart rate, in words (heart rate): more active in increasing heart rate
